Results published in US11230526B1, “Cylcoalkenyl derivatives useful as agonists of the GPR120 and/or GPR40 receptors” (Janssen Pharmaceutica NV, priority 2018, dated 2022).

What was measured:
Human GPR120 short form = target: T1, Human GPR120 short form (Homo sapiens, UniProt Q5NUL3); experiment: Human GPR120 calcium flux assay, Procedure Calcium B (4200 cells/well); assay type: cell-based
T1 construct: expressed in transfected cells
T1 sequence (Q5NUL3 1-361): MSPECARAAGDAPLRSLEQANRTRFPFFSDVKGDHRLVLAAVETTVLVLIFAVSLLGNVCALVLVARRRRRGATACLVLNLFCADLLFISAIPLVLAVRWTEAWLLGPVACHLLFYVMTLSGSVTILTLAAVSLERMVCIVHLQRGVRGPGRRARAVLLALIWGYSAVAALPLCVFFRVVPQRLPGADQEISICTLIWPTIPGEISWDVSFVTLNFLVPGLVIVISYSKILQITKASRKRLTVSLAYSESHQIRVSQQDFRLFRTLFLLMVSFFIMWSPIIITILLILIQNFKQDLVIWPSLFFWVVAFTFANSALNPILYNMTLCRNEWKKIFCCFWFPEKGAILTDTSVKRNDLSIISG
Description: Human GPR120 in Calcium Flux Assay
These cells are first loaded with the Ca^+2 sensitive dye, Fluo-4 NW. Upon stimulation, intracellular released Ca^+2 can bind to the dye and alter its fluorescence intensity. This increase in fluorescence signal, and thus the flux in intracellular [Ca^2+], is detected and quantitated by fluorescence imaging using a FLIPR reader. The effect of the agonist is measured as a function of concentration and used to calculate an EC50 based upon a response curve.
In this procedure 4200 cells/well were employed.
A Human GPR120 clone (Genbank accession number NM_001195755.1) was placed into the pcDNA3.1 mammalian expression vector carrying the neomycin resistance gene. A stable mammalian cell was generated by placing the above clone into a HEK293 background. […] Cells were split 2 times a week to keep the cells in the log-phase growth. […]
The assay was performed on a FLIPR plate reader using the following parameters. Baseline was read for 10 seconds at 1 sec intervals. The program was set to transfer 10 μL of ligand from compound plate to cell plate after baseline reading. Aspiration was executed at: 10 μL/sec speed, 4.6 μL height, Dispensing was executed at: 30 μL/sec speed, 45 μL height. After compound addition, each well was read for 300 sec, with measurements collected at 1 sec intervals.
The kinetic data from the FLIPR was based upon a 5 minute window for data collection. The fluorescence of each sample well was used for individual calculations of a normalized RFU value, which was defined as maximum response minus the minimum response. The normalized fluorescence reading (RFU) was calculated as follows: RFU=Fmax−Fmin
The Fitting Equation was: Y=Bottom+(Top-Bottom)/(1+10^((Log EC50−X)*HillSlope)), where X is the log of the concentration and Y is the response.

human GPR40 = target: T2, human GPR40 (Homo sapiens, UniProt O14842); experiment: GPR40 calcium flux assay, human GPR40; assay type: cell-based; conditions: HEK293 cells stably expressing GPR40; table does not say human or rat
T2 construct: expressed in transfected cells
T2 sequence (O14842 whole entry): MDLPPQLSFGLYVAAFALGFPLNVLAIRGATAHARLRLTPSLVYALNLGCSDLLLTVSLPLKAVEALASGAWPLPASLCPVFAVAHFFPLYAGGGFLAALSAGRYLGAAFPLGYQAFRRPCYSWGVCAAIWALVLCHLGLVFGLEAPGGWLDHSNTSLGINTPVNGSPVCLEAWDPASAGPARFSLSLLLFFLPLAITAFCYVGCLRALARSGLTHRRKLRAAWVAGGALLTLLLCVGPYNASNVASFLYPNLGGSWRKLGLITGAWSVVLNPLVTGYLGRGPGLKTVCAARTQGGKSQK
Description: Compounds were tested in a calcium flux assay using transfected HEK293 cells stably expressing either human GPR40 or rat GPR40. Human GPR40 expressing cells were cultured in DMEM−High Glucose media supplemented with 10% fetal bovine serum, 1×L-Glutamine, 1×Penicillin/Streptomycin and 500 μg/mL G418. Rat GPR40 expressing cells were cultured in DMEM−High Glucose media supplemented with 10% fetal bovine serum and 1 μg/mL puromycin. Cells were plated into poly-D-lysine coated 384-well plates and cultured overnight in a 37° C. humidified tissue culture incubator under 5% CO2/[…] atmosphere.
On the day of the experiment, the culture media was replaced with assay buffer (HBSS, 20 mM HEPES, 0.1% BSA) and the cells incubated at 37° C. for 1 h. Calcium-sensitive fluorescent dye (Fluo 8 No-Wash Calcium Dye, ABD Bioquest) was then added and the cells incubated for another 30 min at 37° C. followed by 15 min at room temperature while protected from the light. The cell plate and a plate of diluted compounds of Formula (I) were loaded into a fluorescent plate reader that added compounds onto the cells while measuring the fluorescence intensity of each well. The plate reader recorded fluorescence intensity at 1 second intervals for 8 min and provided the data for analysis in an Excel format. EC50 values were calculated using Prism (GraphPad) software.

| SMILES | EC50 (Human GPR120 short form) | EC50 (human GPR40) |
| --- | --- | --- |
| O=C(O)CCc1ccc(OCC2=C(Cc3cncs3)CCCC2)cc1C(F)(F)F [Compound 596, 3-[4-[[2-(thiazol-5-ylmethyl)cyclohexen-1-yl]methoxy]-2-(trifluoromethyl)phenyl]Propanoic Acid] | 2.37 µM | 0.324 µM |
| O=C(O)CCc1ccc(OCC2=C(Cc3cccc(F)c3)CCC2)cc1Cl [Compound 362, 3-[2-chloro-4-[[2-[(3-fluorophenyl)methyl]cyclopenten-1-yl]methoxy]phenyl]Propanoic Acid] | > 5 µM | 0.159 µM |
| CCC(C)C1=C(COc2ccc(CCC(=O)O)c(C(F)(F)F)c2)CCC1 (stereo not shown) [Compound 388, 3-[4-[(2-sec-butylcyclopenten-1-yl)methoxy]-2-(trifluoromethyl)phenyl]Propanoic Acid] | 1.63 µM | 0.086 µM |
| Cc1cc(CCC(=O)O)ccc1OCC1=C(C2=CCOCC2)CCC1 [Compound 238, 3-[4-[[2-(3,6-dihydro-2H-pyran-4-yl)cyclopenten-1-yl]methoxy]-3-methyl-phenyl]Propanoic Acid] | 0.435 µM | > 5 µM |
| COC1CCC(c2ccccc2C)=C(COc2ccc(CCC(=O)O)c(C(F)(F)F)c2)C1 (stereo not shown) [Compound 576, 3-[4-[[5-methoxy-2-(o-tolyl)cyclohexen-1-yl]methoxy]-2-(trifluoromethyl)phenyl]Propanoic Acid] | > 5 µM | 1.57 µM |
| O=C(O)CCc1ccc(OCC2=C(c3ccc(C(F)(F)F)cc3)CCC2)cc1C(F)(F)F [Compound 300, 3-[2-(trifluoromethyl)-4-[[2-[4-(trifluoromethyl)phenyl]cyclopenten-1-yl]methoxy]phenyl]Propanoic Acid] | 1.55 µM | 0.197 µM |
| O=C(O)CCc1ccc(OCC2=C(C3CCCC3)CCC2)cc1C(F)(F)F [Compound 398, 3-[4-[(2-cyclopentylcyclopenten-1-yl)methoxy]-2-(trifluoromethyl)phenyl]Propanoic Acid] | 0.556 µM | 0.008 µM |
| CSCCCCc1cc(CCC(=O)O)ccc1OCC1=C(c2ccc(Cl)cc2)CCC(F)(F)C1 [Compound 565, 3-[4-[[2-(4-chlorophenyl)-5,5-difluoro-cyclohexen-1-yl]methoxy]-3-(4-methylsulfanylbutyl)phenyl]Propanoic Acid] | 3.89 µM |  |
| O=C(O)CCc1ccc(OCC2=C(C3CCC(F)(F)CC3)CCC2)cc1C(F)(F)F [Compound 416, 3-[4-[[2-(4,4-difluorocyclohexyl)cyclopenten-1-yl]methoxy]-2-(trifluoromethyl)phenyl]Propanoic Acid] | > 5 µM | 0.094 µM |
| CS(=O)(=O)CCCCc1cc(CCC(=O)O)ccc1OCC1=C(c2ccc(Cl)cc2)CCC(F)(F)C1 [Compound 551, 3-[4-[[2-(4-chlorophenyl)-5,5-difluoro-cyclohexen-1-yl]methoxy]-3-(4-methylsulfonylbutyl)phenyl]Propanoic Acid] | > 5 µM |  |
| O=C(O)CCc1ccc(OCC2=C(CC3CCCC3)CCC2)cc1C(F)(F)F [Compound 420, 3-[4-[[2-(cyclopentylmethyl)cyclopenten-1-yl]methoxy]-2-(trifluoromethyl)phenyl]Propanoic Acid] | 1.19 µM |  |
| O=C(O)CCc1cc(F)c(OCC2=C(c3cncs3)CCC(F)(F)C2)c(F)c1 [Compound 549, 3-[4-[(5,5-difluoro-2-thiazol-5-yl-cyclohexen-1-yl)methoxy]-3,5-difluoro-phenyl]Propanoic Acid] | 1.28 µM |  |
| O=C(O)CCc1ccc(OCC2=C(c3ccc(Cl)cc3)CC(F)C2)cc1Cl (stereo not shown) [Compound 252, 3-[2-chloro-4-[[2-(4-chlorophenyl)-4-fluoro-cyclopenten-1-yl]methoxy]phenyl]Propanoic Acid] | 0.265 µM |  |
| Cc1c(CCC(=O)O)ccc(OCC2=C(CC3CCCC3)CCC2)c1C [Compound 427, 3-[4-[[2-(cyclopentylmethyl)cyclopenten-1-yl]methoxy]-2,3-dimethyl-phenyl]Propanoic Acid] | 0.231 µM |  |
| N#Cc1cc(OCC2=C(C3CCCC3)CCC2)ccc1CCC(=O)O [Compound 414, 3-[2-cyano-4-[(2-cyclopentylcyclopenten-1-yl)methoxy]phenyl]Propanoic Acid] | 2.58 µM |  |

Second part, the compound after the results:

| EC50 (Human GPR120 short form) | EC50 (human GPR40) | SMILES |
| --- | --- | --- |
| 0.346 µM | 0.471 µM | Cc1cc(OCC2=C(c3ccc(Cl)c(F)c3)CCC2)c(F)cc1CCC(=O)O [Compound 280, 3-[4-[[2-(4-chloro-3-fluoro-phenyl)cyclopenten-1-yl]methoxy]-5-fluoro-2-methyl-phenyl]Propanoic Acid] |
| 0.418 µM | > 5 µM | CCc1ccc(C2=C(COc3cc(C)c(CCC(=O)O)cc3F)CCC2)cc1 [Compound 290, 3-[4-[[2-(4-ethylphenyl)cyclopenten-1-yl]methoxy]-5-fluoro-2-methyl-phenyl]Propanoic Acid] |
| > 5 µM | > 5 µM | O=C(O)CCc1ccc(OCC2=C(c3ccc(Cl)cc3)CCC2)cc1 [Compound 107] |
| 0.866 µM | 0.746 µM | Cc1cc(OCC2=C(c3ccc(Cl)cc3)C(C)CC2)c(F)cc1CCC(=O)O (stereo not shown) [Compound 317, 3-[4-[[2-(4-chlorophenyl)-3-methyl-cyclopenten-1-yl]methoxy]-5-fluoro-2-methyl-phenyl]Propanoic Acid] |
| 0.378 µM |  | Cc1cc(OCC2=C(c3cccc(F)c3)CCC2)c(F)cc1CCC(=O)O [Compound 305, 3-[5-fluoro-4-[[2-(3-fluorophenyl)cyclopenten-1-yl]methoxy]-2-methyl-phenyl]Propanoic Acid] |
| > 5 µM |  | CS(=O)(=O)CCCCc1cc(CCC(=O)O)ccc1OCC1=C(c2ccc(Cl)cc2)CCC1 [Compound 181, 3-[4-[[2-(4-chlorophenyl)cyclopenten-1-yl]methoxy]-3-(4-methylsulfonylbutyl)phenyl]Propanoic Acid] |
|  | > 5 µM | CC(Cc1cc(F)c(OCC2=C(c3ccc(Cl)cc3)CCC2)c(F)c1)C(=O)O (stereo not shown) [Compound 144, 3-[4-[[2-(4-chlorophenyl)cyclopenten-1-yl]methoxy]-3,5-difluoro-phenyl]-2-methyl-Propanoic Acid] |
| 1.07 µM |  | O=C(O)CCc1cc(F)c(OCC2=C(c3ccc(Cl)c(F)c3)CCC(F)(F)C2)c(F)c1 [Compound 528, 3-[4-[[2-(4-chloro-3-fluoro-phenyl)-5,5-difluoro-cyclohexen-1-yl]methoxy]-3,5-difluoro-phenyl]Propanoic Acid] |
| 1.41 µM |  | O=C(O)CCc1ccc(OCC2=C(c3ccc(Cl)cc3)CCC2)cc1C(F)(F)C(F)(F)F [Compound 89, 3-[4-[[2-(4-chlorophenyl)cyclopenten-1-yl]methoxy]-2-(1,1,2,2,2-pentafluoroethyl)phenyl]Propanoic Acid] |
| 0.957 µM |  | Cc1cccc(C2=C(COc3cc(C)c(CCC(=O)O)cc3F)CCC2)c1 [Compound 318, 3-[5-fluoro-2-methyl-4-[[2-(m-tolyl)cyclopenten-1-yl]methoxy]phenyl]Propanoic Acid] |
| > 5 µM |  | CC(C)(C)c1cc(OCC2=C(c3ccc(Cl)cc3)CCC2)ccc1CCC(=O)O [Compound 168, 3-[2-tert-butyl-4-[[2-(4-chlorophenyl)cyclopenten-1-yl]methoxy]phenyl]Propanoic Acid] |
|  | > 5 µM | CCc1cc(CCC(=O)O)c(C(F)(F)F)cc1OCC1=C(c2ccc(Cl)cc2)CCC1 [Compound 142, 3-[4-[[2-(4-chlorophenyl)cyclopenten-1-yl]methoxy]-5-ethyl-2-(trifluoromethyl)phenyl]Propanoic Acid] |
| 1.57 µM |  | Cc1c(CCC(=O)O)cc(I)c(OCC2=C(c3ccc(I)cc3)CCCC2)c1C [Compound 524, 3-[5-iodo-4-[[2-(4-iodophenyl)cyclohexen-1-yl]methoxy]-2,3-dimethyl-phenyl]Propanoic Acid] |
